In US11883419B2, “DNA polymerase gamma inhibitor and uses thereof” (ACIBADEM MEHMET ALI AYDINLAR UNIVERSITESI, priority 2018, dated 2024):

Assays:
[1] = tested on: HCT116 (MLH1 deficient); experiment: xCELLigence real time cell proliferation/cytotoxicity; settings: read-out: IC50, cytotoxicity; HCT116, 5, 10, 20 μM, 72 h, RTCA software
[2] = tested on: Lovo xenograft; experiment: Lovo xenograft study in nude mice; assay type: in vivo
[3] = tested on: HCT116 xenograft; experiment: HCT116 xenograft study in nude mice; assay type: in vivo; settings: all doses
Description: Tumor volume (mm^3) vs days the graph is indicated in FIG. 6 (a), body weight vs days after injection graph is in FIG. 6 (b), and FIG. 6 (c) is HCT116 Control vs […] image.

## Nc1c(/N=N/c2ccc(-c3ccc(/N=N/c4cc(S(=O)(=O)O)c5ccccc5c4N)cc3)cc2)cc(S(=O)(=O)O)c2ccccc12 [Formula II]
[1]
  IC50: 5.19 µM
[2]
  Tumor growth: did not affect the tumor growth
[3]
  Tumor volume: decreased tumor volume in all doses
